Legend:
[1] = Rodent brain penetration study; format: in vivo, male Wistar rats; details: male, Wistar, brain and plasma, po; rat, 3 mg/kg, p.o., brain-plasma ratio; read-out: Single dose rat brain penetration (Cb/Cp)
Protocol: Male Wistar rats (260±40 grams) were used as experimental animals. Three animals were housed in each cage. Animals were given water and food ad libitum throughout the experiment and maintained on a 12 hours light/dark cycle.
Brain penetration was determined in discrete manner in rats. One day prior to dosing day, male Wistar rats were acclimatized and randomly grouped according to their weight. At each time point (0.50, 1 and 2 hours) n=3 animals were used.
The test compounds were suitably preformulated and administered orally at (free base equivalent) 3 mg/kg. Blood samples were collected via cardiac puncture by using isoflurane anesthesia. The animals were sacrificed to collect brain tissue. Plasma was separated and brain samples were homogenized and stored frozen at −20° C. until analysis. The concentrations of the test compounds in plasma and brain were determined using LC-MS/MS method.
The test compounds were quantified in plasma and brain homogenate by qualified LC-MS/MS method using suitable extraction technique. The test compounds were quantified in the calibration range of 1-1000 ng/mL in plasma and brain homogenate. Study samples were analyzed using calibration samples in the batch and quality control samples spread across the batch. Extent of brain-plasma ratio (Cb/Cp) was calculated.

[2] = target: T1, recombinant human 5-HT6 receptor (Homo sapiens, UniProt P50406); experiment: Determination of Kb for 5-HT6 receptor (CHO cells, pCRE-Luc reporter, cAMP); format: cell-based; details: 10 μM serotonin, luciferase reporter
T1 construct: expressed in transfected cells
Protocol: Determination of Kb for 5-HT6 Receptor: A stable CHO cell line expressing recombinant human 5-HT6 receptor and pCRE-Luc reporter system was used for cell based assay. The assay offers a non-radioactive based approach to determine binding of a compound to GPCRs. In this specific assay, the level of intracellular cyclic AMP which is modulated by activation or inhibition of the receptor is measured. The recombinant cells harbor luciferase reporter gene under the control of cAMP response element. The above cells were plated in 96 well clear bottom white plates at a density of 5×10^4 cells/well using Hams F12 medium containing 10% fetal bovine serum (FBS) and incubated overnight at 37° C. and 5% CO2 followed by serum starvation for 18-20 hrs. Increasing concentrations of test compounds were added along with 10 μM serotonin in Opti-MEM to the cells. The incubation was continued at 37° C. in CO2 incubator for 4 hours. After 4 hours cells were lysed using lysis buffer and luciferase assay buffer was added to each well and counts per second were recorded using luminescence counter. From counts per second (CPS) obtained, percent binding was calculated for each well by taking 10 μM 5-HT as 100% bound and vehicle as 0% bound. The percent bound values were plotted against compound concentrations and data were analyzed using a nonlinear, iterative curve-fitting computer program of Graph pad Prism 4 software. The Kb values were calculated using concentration of the agonist used in the assay.

[3] = Rodent pharmacokinetic study; format: in vivo, male Wistar rats; details: male, Wistar, plasma, rat
Protocol: Male Wistar rats (260±50 grams) were used as experimental animals. Animals were housed individually in polypropylene cage. Two days prior to study, male Wistar rats were anesthetized with isoflurane for surgical placement of jugular vein catheter. Rats were randomly divided for oral (3 mg/kg) and intravenous (1 mg/kg) dosing (n=3/group) and fasted overnight before oral dosing (p.o.). However, rats allocated to intravenous dosing food and water was provided ad libitum.
At pre-determined point, blood was collected through jugular vein and replenished with an equivalent volume of normal saline. Collected blood was transferred into a labeled eppendorf tube containing 10 μL, of heparin as an anticoagulant. Typically blood samples were collected at following time points: 0.08, 0.25, 0.5, 1, 2, 4, 6, 8, and 24 hours post dose. Blood was centrifuged at 4000 rpm for 10 minutes. Plasma was separated and stored frozen at −80° C. until analysis. The concentrations of the test compounds were quantified in plasma by qualified LC-MS/MS method using suitable extraction technique. The test compounds were quantified in the calibration range around 1-1000 ng/mL in plasma. Study samples were analyzed using calibration samples in the batch and quality control samples spread across the batch.
Pharmacokinetic parameters Cmax, AUC1, T1/2, Clearance and Bioavailability (F) were calculated by non-compartmental model using standard non-compartmental model by using Phoenix WinNonlin 6.2 or 6.4 version Software package.

[4] = tested on: extracellular levels of acetylcholine in ventral hippocampus; experiment: Acetylcholine modulation in ventral hippocampus (microdialysis); format: in vivo, male Wistar rats; details: Example 1 10 mg/kg; for acetylcholine peak levels, % of pre-dose levels: p.o. in combination with donepezil 1 mg/kg, s.c.
Excerpt: Four groups of male Wistar rats (240-300 g body weight) were stereotaxically implanted with a microdialysis guide cannula in ventral hippocampus (AP: −5.2 mm, ML: +5.0 mm, DV: −3.8 mm) under isoflurane anesthesia. Co-ordinates were taken according to atlas for the rat brain (Paxinos and Watson 2004) with reference points taken from bregma and vertical from the skull. […] After surgical recovery of 4-5 days, male Wistar rats were connected to dual quartz lined two-channel liquid swivel (Instech, UK) on a counter balance lever arm, which allowed unrestricted movements of the animal. […] On the day of study, probe was perfused with artificial cerebrospinal fluid (aCSF; NaCl 147 mM, KC13 mM, MgCl2 1 mM, CaCl2. 2H2O 1.3 mM, NaH2PO4.2H2O 0.2 mM and Na2HPO4.7H2O 1 mM, pH 7.2) at a flow rate of 1.5 μL/min and a stabilization period of 2 h was maintained. […] Dialysate samples were collected for an additional period of 4 h post treatment of example 1. Dialysates were stored below −50° C. prior to analysis. Acetylcholine in dialysate was quantified using LC-MS/MS method in the calibration range of 0.099 nmol/L-70.171 nmol/L. […] Incorrect probe placement was considered as criteria to reject the data from animal.

T1 sequence (P50406 whole entry): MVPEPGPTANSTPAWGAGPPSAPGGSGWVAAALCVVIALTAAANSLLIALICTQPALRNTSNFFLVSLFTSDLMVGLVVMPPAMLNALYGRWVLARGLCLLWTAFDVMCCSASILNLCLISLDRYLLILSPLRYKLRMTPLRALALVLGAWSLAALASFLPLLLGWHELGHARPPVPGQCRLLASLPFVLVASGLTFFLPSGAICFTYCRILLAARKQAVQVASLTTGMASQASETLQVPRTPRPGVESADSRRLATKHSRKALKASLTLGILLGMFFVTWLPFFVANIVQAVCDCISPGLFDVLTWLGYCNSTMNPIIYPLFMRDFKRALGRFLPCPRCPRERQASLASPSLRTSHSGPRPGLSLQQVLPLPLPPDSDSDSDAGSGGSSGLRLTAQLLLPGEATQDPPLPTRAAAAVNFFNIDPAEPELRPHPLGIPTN

Question: Which results are given for `Cl.O=S(=O)(c1ccccc1)c1ccc2c(c1)OCCN2C1CCNCC1F` (single isomer, unassigned; peak iii) [Example 1, 7-Phenylsulfonyl-4-(3-fluoropiperidin-4-yl)-3,4-dihydro-2H-benzo[1,4]oxazine hydrochloride (Peak III)]?
Answer: Kp [1]: 0.78 ± 0.2; Kb [2]: 0.04 nM; AUC(0-t) ([3]; intravenous (bolus), 1 mg/kg): 412 ± 37 ng·h/mL; clearance ([3]; intravenous (bolus), 1 mg/kg): 40 ± 3 mL/min/kg; half-life ([3]; intravenous (bolus), 1 mg/kg): 4.5 ± 0.1 h; bioavailability ([3]; oral (gavage) 3 mg/kg vs intravenous 1 mg/kg, read-out: F (Bioavailability)): 81 ± 1%; AUC(0-t) ([3]; oral (gavage), 3 mg/kg): 1000 ± 15 ng·h/mL; Cmax ([3]; oral (gavage), 3 mg/kg): 84 ± 14 ng/mL; half-life ([3]; oral (gavage), 3 mg/kg): 5.6 ± 0.9 h; Mean area under the curve values (AUC) of percent change in acetylcholine ([4]; p.o. + donepezil + memantine, compared to donepezil and memantine combination): significantly higher; Mean area under the curve values (AUC) of percent change in acetylcholine ([4]; p.o. + donepezil, compared to donepezil 1 mg/kg, s.c. alone): significantly higher; acetylcholine peak levels, % of pre-dose levels [4]: 1445±247%; acetylcholine peak levels, % of pre-dose levels ([4]; s.c. and memantine 1 mg/kg): 2822±415%

Source: US10973831B2, “Fluoropiperidine compounds as pure 5-HT 6 receptor antagonists” (SUVEN LIFE SCIENCES LIMITED, priority 2017, dated 2021)
